Literature values as cited in patent US10828311B2, “Controlled release compositions and their methods of use” (BAYER NEW ZEALAND LTD, priority 2012, dated 2020).
≈ marks a conversion by molar mass, not a printed value.

System: microbes
Settings: for Cloxacillin in New Zealand

For `Cc1onc(-c2ccccc2Cl)c1C(=O)N[C@@H]1C(=O)N2[C@@H]1SC(C)(C)[C@@H]2C(=O)O` [Cloxacillin, cloxacillin], which MIC90 is on record?
The MIC90 was 0.5 µg/mL (≈ 1.15 µM).
